{"source": "patent US20230364111A1", "about": "(priority 2020, published 2023)", "key": {"[1]": {"test_system": "SARS-CoV-2 (isolate USA WA1/2020)", "assay": "SARS-CoV-2 infection of Calu-3 cells (dsRNA+ cells, automated microscopy)", "type": "cell-based", "settings": "Severe acute respiratory syndrome coronavirus 2, SARS-CoV-2 USA WA1/2020, MOI=0.5, 48 h post-infection, Calu-3", "experimental": "(§1) FIGS. 12A-12C depict dose-response curves for Oxy232. (FIG. 12A) Secreted viral RNA in the VeroE6 culture supernatant 24 h post-inoculation was quantified by real-time RT-PCR. Cell viability of Oxy232 treated cells evaluated with an MTT assay. (FIG. 12B) Secreted viral RNA of 3 SARS-CoV-2 strains in the VeroE6 culture supernatant 24 h post-inoculation was quantified by real-time RT-PCR. (FIG. 12C) Calu-3 (ATCC) cells were pretreated with Oxy232 for 2 hours prior to continuous infection with SARS-CoV-2 (isolate USA WA1/2020) at MOI=0.5. 48 h post-infection, cells were fixed, immune-strained, and imaged by automated microscopy for infection (dsRNA+ cells/total cell number) and cell number.\nAccording to a previously published report (Ohashi et al., Identification of Anti-Severe Acute Respiratory Syndrome-Related Coronavirus 2 (SARS-CoV-2) Oxysterol Derivatives In Vitro. Int J Mol Sci. 2021; 22(6):3163. PMCID: PMC8003796) inventors have tested a collection of naturally occurring and semisynthetic oxysterol derivatives in a SARS-CoV-2 cell culture infection assay in VeroE6/TMPRSS2 cells. […] See, Ohashi et al., Int J Mol Sci. 2021; 22(6):3163 and Dittmar et al. Drug repurposing screens reveal cell-type-specific entry pathways and FDA-approved drugs active against SARS-Cov-2. Cell Rep. […] PMCID: PMC7985926. […] Without wishing to be bound by a theory, biological activities of oxysterols, including measures of cell viability, can heavily depend on in vitro assay conditions, such as the fetal bovine serum concentration or the duration of pretreatment with the compounds, among other factors, that may not translate to the in vivo safety of the compounds."}, "SARS-CoV-2 Wk-521 strain": {"test_system": "SARS-CoV-2 Wk-521 strain", "assay": "SARS-CoV-2 infection assay, viral RNA in culture supernatant (VeroE6/TMPRSS2 cells)", "type": "cell-based"}, "[2]": {"type": "in vivo, mice", "settings": "chow diet containing 4 mg Oxy210/g of food; 96 h"}, "TGFβ signaling": {"test_system": "TGFβ signaling", "settings": "previously reported [16]; fibroblastic cells and tumor cells; cited from earlier work"}, "Calu-3 cells": {"test_system": "Calu-3 cells", "settings": "at higher concentrations; automated microscopy"}, "[3]": {"test_system": "SARS-CoV-2 TY8-612 (South Africa strain)", "assay": "SARS-CoV-2 TY8-612 strain infection in VeroE6/TMPRSS2 cells", "type": "cell-based", "settings": "viral RNA 24 h post-inoculation", "experimental": "as §1\n(§2) According to a previously published report (Ohashi et al., Identification of Anti-Severe Acute Respiratory Syndrome-Related Coronavirus 2 (SARS-CoV-2) Oxysterol Derivatives In Vitro. Int J Mol Sci. 2021; 22(6):3163. PMCID: PMC8003796) inventors have tested a collection of naturally occurring and semisynthetic oxysterol derivatives in a SARS-CoV-2 cell culture infection assay in VeroE6/TMPRSS2 cells. […] See, Ohashi et al., Int J Mol Sci. 2021; 22(6):3163 and Dittmar et al. Drug repurposing screens reveal cell-type-specific entry pathways and FDA-approved drugs active against SARS-Cov-2. Cell Rep. […] PMCID: PMC7985926. […]"}, "[4]": {"test_system": "HCV NN (genotype-1b) subgenomic replicon", "type": "cell-based, Hepatitis C virus (HCV)", "settings": "10 μM Oxy210; 48 h; LucNeo #2 cells"}, "in vitro [5]": {"assay": "in vitro", "settings": "African green monkey"}, "[6]": {"test_system": "idiopathic pulmonary fibrosis (IPF)", "assay": "Mouse model of idiopathic pulmonary fibrosis (IPF)", "type": "in vivo", "settings": "Parhami et al., unpublished observations"}, "SARS-CoV-2 [7]": {"test_system": "SARS-CoV-2", "assay": "Time of addition assay, SARS-CoV-2 viral RNA", "type": "cell-based", "settings": "15 μM RDV, 15 μM CLQ, 10 μM Oxy210, 10 μM Oxy133"}, "in vitro [8]": {"assay": "in vitro", "settings": "human"}, "VeroE6/TMPRSS2 cells": {"test_system": "VeroE6/TMPRSS2 cells", "settings": "read-out: CC50 (VeroE6); VeroE6"}, "[9]": {"test_system": "double-membrane vesicles (DMVs) in SARS-CoV-2-infected cells", "assay": "Electron microscopy of double-membrane vesicle (DMV) formation", "type": "cell-based", "settings": "10 μM Oxy210, Oxy232 (10 μM)"}, "[10]": {"assay": "In vivo safety and tolerability in mice", "settings": "mouse"}, "Hedgehog (Hh) signaling": {"test_system": "Hedgehog (Hh) signaling", "settings": "previously reported [16]; fibroblastic cells and tumor cells; cited from earlier work"}, "SARS-CoV-2 [11]": {"test_system": "SARS-CoV-2", "assay": "SARS-CoV-2-induced cytopathic effect (CPE) in VeroE6/TMPRSS2 cells", "type": "cell-based"}, "[12]": {"settings": "single oral dose 200 mg/kg"}, "[13]": {"test_system": "SARS-CoV-2 TY7-501 (Brazil strain)", "assay": "SARS-CoV-2 TY7-501 strain infection in VeroE6/TMPRSS2 cells", "type": "cell-based", "settings": "viral RNA 24 h post-inoculation", "experimental": "as §1, §2"}, "HDV": {"test_system": "HDV", "type": "cell-based, Hepatitis D virus (HDV)", "settings": "10 μM Oxy210 for six days; 200 nM MyrB; HepG2-hNTCP-C4 cells"}, "in vivo": {"assay": "in vivo", "settings": "balb/c, mouse, po, 200 mg/kg"}, "SARS-CoV-2 [14]": {"test_system": "SARS-CoV-2", "type": "cell-based"}}, "note": "Entries after “also recorded” stand apart in the source; their conditions may differ. Read-outs that look alike come from different tables or passages of the source.", "data": [{"smiles": "C[C@]12CC[C@H]3[C@@H](CC=C4C[C@@H](O)CC[C@@]43C)[C@@H]1CC[C@@H]2[C@](C)(O)CCc1cccnc1", "note": "[Oxy210, (3S,8S,9S,10R,13S,14S,17S)-17-((R)-2-hydroxy-4-(pyridin-3-yl)butan-2-yl)-10,13-dimethyl-2,3,4,7,8,9,10,11,12,13,14,15,16,17-tetradecahydro-1H-cyclopenta[a]phenanthren-3-ol]", "values": [{"measurement": "IC50", "setting": "[1]; read-out: IC50 (Calu-3)", "result": 1.5, "unit": "µM"}, {"measurement": "IC90", "setting": "[1]; read-out: IC90 (Calu-3)", "result": 4.24, "unit": "µM"}, {"measurement": "viral RNA in the culture supernatant", "setting": "SARS-CoV-2 Wk-521 strain; 24 h post-inoculation, natural oxysterols up to 30 μM, semi-synthetic up to 15 μM", "result": "reduced viral RNA level in a dose-dependent manner"}, {"measurement": "IC50", "setting": "SARS-CoV-2 Wk-521 strain; Severe acute respiratory syndrome coronavirus 2, Vero C1008, SARS-CoV-2, VeroE6, read-out: IC50 (VeroE6)", "result": 5.5, "unit": "µM"}, {"measurement": "IC90", "setting": "SARS-CoV-2 Wk-521 strain; Severe acute respiratory syndrome coronavirus 2, Vero C1008, SARS-CoV-2, VeroE6, read-out: IC90 (VeroE6)", "result": 8.6, "unit": "µM"}, {"measurement": "IC90", "setting": "SARS-CoV-2 Wk-521 strain; Severe acute respiratory syndrome coronavirus 2, VeroE6/TMPRSS2, 24 h, SARS-CoV-2 viral RNA in culture supernatant, 24 h post-inoculation, VeroE6/TMPRSS2 cells, read-out: IC90", "result": 8.6, "unit": "µM"}, {"measurement": "IC50", "setting": "SARS-CoV-2 Wk-521 strain; Severe acute respiratory syndrome coronavirus 2, SARS-CoV-2 viral RNA in culture supernatant, 24 h post-inoculation, VeroE6/TMPRSS2 cells, read-out: IC50", "result": 5.5, "unit": "µM"}, {"measurement": "reduction of viral RNA production at the maximum", "setting": "SARS-CoV-2 Wk-521 strain; at 15 μM", "result": 99.4, "unit": "%"}, {"measurement": "anti-SARS-CoV-2 activity", "setting": "SARS-CoV-2 Wk-521 strain; cell-based assay, VeroE6/TMPRSS2", "result": "superior anti-SARS-CoV-2 activity; also recorded: robust anti-SARS-CoV-2 activity"}, {"measurement": "viral RNA levels in the culture supernatant", "setting": "SARS-CoV-2 Wk-521 strain; oxysterol derivatives at 10 or 30 uM, 24 h post-inoculation, VeroE6/TMPRSS2", "result": "strongly reduced viral RNA levels"}, {"measurement": "SARS-CoV-2 propagation in cultured cells", "setting": "SARS-CoV-2 Wk-521 strain; statement in words", "result": "potently inhibits the SARS-CoV-2 propagation"}, {"measurement": "SARS-CoV-2 replication", "setting": "SARS-CoV-2 Wk-521 strain; statement in words", "result": "drastically reduced SARS-CoV-2 replication; also recorded: inhibits the SARS-CoV-2 genome replication; also recorded: potent replication inhibitor"}, {"measurement": "antiviral effect against SARS-CoV-2 (dose response, viral RNA)", "setting": "SARS-CoV-2 Wk-521 strain; various concentrations, VeroE6/TMPRSS2", "result": "highly potent antiviral effect"}, {"measurement": "adverse effects / body weight", "setting": "[2]", "result": "No adverse effects or significant loss of body weight"}, {"measurement": "TGFβ signaling", "setting": "TGFβ signaling", "result": "inhibited"}, {"measurement": "cell viability in Calu-3 cells", "setting": "Calu-3 cells", "result": "do affect cell viability"}, {"measurement": "activity against the TY8-612 strain", "setting": "[3]", "result": "undiminished activity"}, {"measurement": "HCV replication (luciferase activity)", "setting": "[4]", "result": "reduced the DMV-dependent RNA replication of HCV; also recorded: Antiviral effects of Oxy210 were also observed during the replication of HCV"}, {"measurement": "CC50", "setting": "in vitro [5]", "result": "> 15", "unit": "µM"}, {"measurement": "effects in a mouse model of idiopathic pulmonary fibrosis (IPF)", "setting": "[6]", "result": "protective effects"}, {"measurement": "viral RNA, compound present during the whole life cycle", "setting": "SARS-CoV-2 [7]; 24 h", "result": "clearly reduced viral RNA levels"}, {"measurement": "viral RNA, compound present post-entry", "setting": "SARS-CoV-2 [7]; added 2 h post-inoculation for 21 h", "result": "clearly reduced viral RNA levels; also recorded: predominantly inhibits the post-entry process"}, {"measurement": "CC50", "setting": "in vitro [8]", "result": 8.3, "unit": "µM"}, {"measurement": "CC50", "setting": "VeroE6/TMPRSS2 cells", "result": "> 15", "unit": "µM"}, {"measurement": "DMV formation in SARS-CoV-2-infected cells", "setting": "[9]", "result": "disrupting the formation of double-membrane vesicles; also recorded: reduced viral replication and the formation of double-membrane vesicles; also recorded: remarkably reduced the DMV formation; also recorded: reduced the formation of DMVs; also recorded: substantially reduced; also recorded: inhibit DMV formation"}, {"measurement": "in vivo safety and tolerability in mice", "setting": "[10]", "result": "excellent in vivo safety and tolerability"}, {"measurement": "Hedgehog (Hh) signaling", "setting": "Hedgehog (Hh) signaling", "result": "inhibited"}, {"measurement": "virus-induced CPE", "setting": "SARS-CoV-2 [11]; 48 h post-inoculation, 10 μM RDV, 30 μM cholesterol, 30 μM 7-KC, 10 μM Oxy133, 10 μM Oxy210, MOI 0.001", "result": "alleviates the virus-induced CPE; also recorded: blocked"}, {"measurement": "SARS-CoV-2-induced cytopathic effect", "setting": "SARS-CoV-2 [11]; oxy8 7.5 uM, oxy16 20 uM, oxy186 20 uM, oxy210 10 uM, 48 h, VeroE6/TMPRSS2", "result": "protected cells from cytopathic effect"}, {"measurement": "Tmax", "setting": "[12]; plasma", "result": 1, "unit": "h"}, {"measurement": "Cmax", "setting": "[12]; read-out: peak plasma concentration (Cmax), 200 mg/kg", "result": 19.4, "unit": "µM"}, {"measurement": "peak plasma concentration (Cmax)", "setting": "[12]", "result": "8,155 ng/mL"}, {"measurement": "tolerability", "setting": "[12]", "result": "well tolerated"}, {"measurement": "activity against the TY7-501 strain", "setting": "[13]", "result": "undiminished activity"}, {"measurement": "HDV replication / infection (HDV RNA, real-time RT-PCR)", "setting": "HDV", "result": "antiviral activity was not observed in HDV infection"}, {"measurement": "AUC", "setting": "in vivo", "result": 29300, "unit": "ng·h/mL"}, {"measurement": "Cmax", "setting": "in vivo", "result": 19, "unit": "µM"}, {"measurement": "SARS-CoV-2 propagation / spread of infection (viral N protein, immunofluorescence)", "setting": "SARS-CoV-2 [14]", "result": "blocked"}]}]}
